PubChem BioAssay (NCI)
Values joined by “and” are separate entries in the source; they are usually repeats but may differ in a detail not shown here. Identical values can stand only once.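 Test compounds were applied to cells in 96-well plates for 48 hours at 5 doses. At the GI50, growth is halved. TGI denotes the concentration required for complete inhibition of growth.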

Assays:
Assay in all cases: inhibition of tumour cell growth, NCI panel, 48 h
[1] = system: A549 NSCLC
[2] = system: HL-60(TB) leukemia
[3] = system: HOP-62 NSCLC
[4] = system: HT29 colon
[5] = system: NCI-H460 lung
[6] = system: NCI-H522 lung
[7] = system: SK-MEL-28 melanoma
[8] = system: SK-MEL-5 melanoma
[9] = system: SN12C renal
[10] = system: A498 renal

Row | Structure (SMILES) | TGI [1] | TGI [2] | TGI [3] | TGI [4] | TGI [5] | TGI [6] | TGI [7] | TGI [8] | TGI [9] | GI50 [1] [µM] | GI50 [2] [µM] | GI50 [3] [µM] | GI50 [4] [µM] | GI50 [6] [µM] | GI50 [7] [µM] | GI50 [8] [µM] | GI50 [9] [µM] | GI50 [5] [µM] | TGI [10] | GI50 [10] [µM]
1 | CC(C)C(NCc1c2ccccc2nc2ccccc12)C(=O)O (stereo unspecified) | > 100 µM | 73.8 µM | > 100 µM | > 100 µM | > 100 µM | 91.2 µM | > 100 µM | > 100 µM | > 100 µM |  |  |  |  |  |  |  |  |  |  | 
2 | O=C(c1nc2ccccc2[nH]1)C1C(c2cccc([N+](=O)[O-])c2)C2CC3CCCCC3N2[C@@]12C(=O)Nc1cc(Cl)ccc12 (stereo partly specified) | 6.88 µM | 6.67 µM | 4.62 µM | 4.35 µM |  | 4.38 µM | 3.7 µM | 3.1 µM | 3.62 µM | 2.34 | 2.58 | 1.86 | 1.64 | 1.67 | 1.81 | 1.69 | 1.72 |  |  | 
3 | Cc1c(-c2ccnc(N)n2)c2c(n1-c1ccccc1)C(=O)c1ccccc1C2=O | > 100 µM | 30.4 µM | 37.6 µM |  | 60 µM | 37.2 µM | > 100 µM | 34.1 µM | 53.8 µM | 36.1 | 7.83 | 6.61 |  | 13.2 | 41.8 | 16.2 | 14.7 | 17.6 |  | 
4 | CCC1C(=O)OCc2c1cc1n(c2=O)Cc2ccccc2-1 (stereo unspecified) | > 100 µM | > 100 µM | > 100 µM | > 100 µM | > 100 µM |  | > 100 µM | > 100 µM | > 100 µM |  |  |  |  |  |  |  |  |  | > 100 µM | 
5 | CC(C)S(=O)(=O)ON1C(=O)c2ccc([N+](=O)[O-])cc2C1=O | > 100 µM | > 100 µM | > 100 µM | > 100 µM | > 100 µM | > 100 µM | > 100 µM | > 100 µM | > 100 µM |  |  |  |  |  |  |  |  |  | > 100 µM | 
6 | CCCCOc1nc2ccccc2cc1C1CNC(=O)c2ccccc2N1 (stereo unspecified) | 15.9 µM | 1.9 µM | 17.7 µM | 10.6 µM | 11.5 µM | 21.2 µM | 23.6 µM | 18.4 µM | 18.9 µM | 4.25 | 0.357 | 3.08 | 3.3 | 2.75 | 4.82 | 2.79 | 3.77 | 3.16 | 5.3 µM | 0.807
7 | O=C1CCC(=O)C(C(=O)CCC(=O)Nc2ccc(Cl)cc2)C1 (stereo unspecified) | > 100 µM | > 100 µM |  | > 100 µM | > 100 µM | > 100 µM |  | > 100 µM | > 100 µM |  |  |  |  |  |  |  |  |  | > 100 µM | 
8 | COc1cc2ccc(C(=O)O)cc2cc1OC | > 100 µM |  | > 100 µM | > 100 µM | > 100 µM | > 100 µM | > 100 µM | > 100 µM | > 100 µM |  |  |  |  |  |  |  |  |  | > 100 µM | 
9 | CC(=O)O[C@H]1Cc2c([nH]c3ccccc23)[C@@H](c2ccc(Cl)cc2)N1C(=O)CCNC(C)(C)C | 10.1 µM | 11.7 µM | 7.07 µM | 5.57 µM | 10.4 µM | 11 µM | 9.04 µM | 4.61 µM | 8.54 µM | 5.19 | 2.51 | 2.67 | 1.59 | 5.82 | 4.65 | 1.28 | 4.24 | 4.26 | 5.83 µM | 1.9
10 | CCCCCCCC(=O)O[C@H]1[C@H]2[C@@H](CC1(C)C)C(=O)[C@]13O[C@H]1C(=O)[C@]1(CO1)[C@]23C | 38.2 µM and 63.6 µM | 4.57 µM and 2.04 µM | 38.9 µM and 40.2 µM | 14.4 µM and 14.9 µM | 42.6 µM and 12.8 µM | 2.9 µM and 3.85 µM | 12.7 µM and 6.55 µM | 29.9 µM and 10.5 µM | 12.6 µM and 9.31 µM | 22.5 | 0.381 | 19.5 |  |  | 5.87 | 15.3 |  | 20 | 36.1 µM and 22.8 µM | 21.6
11 | Cc1cccc2c1C(=O)OC2(c1cccc2ccccc12)c1cccc2ccccc12 | > 100 µM | > 100 µM | > 100 µM | > 100 µM | > 100 µM | > 100 µM | > 100 µM | > 100 µM | > 100 µM |  |  |  |  |  |  |  |  |  | > 100 µM | 
12 | Cc1cccc(Cc2cnc(NC(=O)/C=C/c3ccco3)s2)c1 | > 100 µM | 0.0837 µM | > 100 µM | > 100 µM | > 100 µM |  | > 100 µM | 3.36 µM | > 100 µM | 0.0591 | 0.0281 | 0.0535 | 0.0373 |  | > 100 | 0.0354 | 0.073 | 0.0359 | 3.93 µM | 0.199
13 | Cc1ccc(/C=C2\CN(C(=O)CCN3CCC(=NO)CC3)C/C(=C\c3ccc(C)cc3)C2=O)cc1 | 7.68 µM | 4.6 µM |  |  |  |  | 4.63 µM | 3.16 µM |  | 2.43 | 1.69 |  |  |  | 2.06 | 1.73 |  |  | 2.96 µM | 1.48
14 | COc1ccc(C(=O)C(CN(C)C)c2ccccc2)cc1 (stereo unspecified) | 96.3 µM | > 100 µM | 23.6 µM | 21.4 µM | 19.2 µM |  | 3.38 µM | 15.4 µM | 12.1 µM | 18.1 | 5.54 | 10.9 | 3.8 |  | 1.83 | 4.22 | 3.56 | 6.13 | 20.5 µM | 8.11
15 | Nc1ccc(C(=O)N/C(=C\c2ccc3c(c2)OCO3)c2nc3ccc4c(c3[nH]2)C(=O)c2ccccc2C4=O)cc1 | 79.3 µM |  | > 100 µM | > 100 µM | > 100 µM | 71.9 µM | 78.5 µM | > 100 µM | > 100 µM |  |  |  |  |  |  |  |  |  | 93.9 µM | 
16 | COc1cc2cc(C(=O)N3C[C@H](CCl)c4c3cc(O)c3ccccc43)[nH]c2c(OC)c1OC |  | 0.0105 µM | 0.198 µM and 1.06 µM | 6.82 µM | 4.34 µM and 23.5 µM |  | 1.99 µM | 0.0439 µM |  |  |  | 0.0157 | 2.64 | 0.0104 |  |  |  | < 0.01 | 0.684 µM | 
17 | c1ccc2c(Nc3ccc4c(c3)OCO4)c3ccoc3nc2c1 | 35.8 µM |  | 32.3 µM |  | > 100 µM | > 100 µM | 58.6 µM | 31.2 µM | 82.1 µM | 6.96 |  | 15.4 |  | 27.2 | 19.2 | 8.85 | 24.2 | 16.5 | 29.1 µM | 14.4
